How the values were obtained:
[1] = test system: DMPG lipid bilayer supported on MS-PPE; test: Superquenching flow cytometric assay for disruption of DMPG lipid bilayer supported on MS-PPE; assay type: biochemical
Protocol: Lipid bilayers were disrupted by adding TRITON X-100 detergent to the bead suspension to a final concentration of 0.25% (w/v).
Bead suspensions of 2.5×10^5 DMPG-coated MS-PPE in 200 μL of PBS were analyzed using a FACScan flow cytometer (Becton-Dickinson, Sunnyvale, Calif.) with excitation at 488 nm. Fluorescence signals were acquired on FL-1 channel (525 nm) using log amplification and analyzed with the CellQuest software. Kinetic analysis of disruption of supported lipid bilayer by melittin was performed by acquiring real-time data with continuous mixing of samples (10^6 MS-PPE in 800 μl of PBS) using a magnetic stirrer. The raw data were analyzed using IDL Query software developed by Bruce Edwards (Cancer Center, University of New Mexico, Albuquerque, N. Mex.).
Because an anionic lipid was used to form a lipid bilayer around MS-PPE, it was expected that MLT will disrupt the DMPG lipid bilayer by such a detergent-like action. This was tested by adding 10 μM AQS to DMPG-coated MS-PPE followed by treatment with one of the following: TRITON X-100 detergent, synthetic MLT (sMLT), or natural MLT (nMLT) and immediately reading the fluorescence by flow cytometry. […] These histograms resemble the ones reported previously for MS-PPE, without a lipid coating, in absence and in presence of AQS.
From FIG. 18, the association constant (corresponding to the reciprocal of the point of half saturation) for nMLT and sMLT with DMPG were 5×10^6 M^−1 and 1.7×10^6 M^−1, respectively. […] Lower concentrations of nMLT, in comparison to sMLT, were required to disrupt the DMPG lipid bilayer. This might be attributed to the fact that nMLT contains some phospholipase A2 (PLA2) as a contaminant. PLA2 has a high affinity for anionic phospholipids, with an association constant of 0.5×10^10 M^−1 (Kim et al., Anal. Chem. 250, 109-116 (1997)), which is about 3000 fold higher than that of MLT. Although PLA2 activity requires calcium, which is not present in the experimental system, it has been reported that even upon addition of EDTA to natural MLT, PLA2 maintains its activity, probably due to formation of a tight complex with calcium with PLA2 (Dempsey, C. E. Biochim. Biophys. Acta 1990, 1031, 143-161).
The kinetics of disruption of supported lipid bilayer by MLT were monitored by measuring real-time changes in fluorescence intensity by flow cytometry (FIG. 19). Suspensions of 10^6 DMPG-coated MS-PPE in 800 μL of PBS were treated with AQS at a final concentration of 10 μM, then with either sMLT, TRITON X-100 detergent, or no treatment. […] Treatment with sMLT in the absence of AQS led to an increase in normalized fluorescence (FIG. 19, trace A). This can be attributed to disruption of the lipid bilayer by sMLT, and is consistent with a reversal of the slight quenching of fluorescence caused by the formation of a DMPG lipid bilayer over MS-PPE. Addition of AQS alone to DMPG-coated MS-PPE (FIG. 19, trace C) led to a 20% reduction in fluorescence as reported earlier. Addition of TRITON X-100 detergent to DMPG-coated MS-PPE after the addition of AQS (first dip in trace E, FIG. 19) caused immediate decrease in fluorescence to ˜10% of its original value (second dip in trace E, FIG. 19). In contrast, addition of sMLT, after the addition of AQS, (FIG. 19, trace D) led to a gradual reduction of fluorescence intensity to ˜20% of the original value. Although MLT forms dimers at high concentrations (Dempsey, C. E. Biochim. Biophys. Acta 1990, 1031, 143-161), it is monomeric at the concentrations used in this study. On the other hand, TRITON X-100 detergent forms micelles at the concentration used in this study.

[2] = test system: EPC lipid bilayer on porous silica beads; test: Suspension study: disruption of EPC bilayers on fluorescein-containing porous silica beads, release of dye into supernatant; assay type: biochemical
Protocol: Lipid coatings on beads were disrupted using 10% TRITON X-100 detergent. Each sample in micro-centrifuge tubes contained 5 mg of lipid bilayer coated, fluorescein entrapped beads in 200 μL of Tris buffer. Samples were centrifuged and 100 μL aliquots of supernatant were mixed with either 100 μL of Tris buffer or 100 μL of 10% TRITON X-100 detergent in separate centrifuge tubes. The fluorescence intensity of each mixture was immediately (time=0) recorded. Each mixture was mixed with its respective bead sample in centrifuge tube and incubated at 25° C. in the dark. After 30 min, samples were centrifuged and fluorescent intensity of the supernatants was measured. Beads were resuspended in their respective supernatants. Fluorescence intensity was again measured at 90 and 150 min.
Experimental procedures were similar to the TRITON X-100 detergent based analysis. For experiments with α-toxin, three different toxin concentrations: 15, 45 and 250 μg/mL were used at 37° C. and 25° C. Beads coated with EPC were used. In the experiments with melittin, 220 μM melittin was used with beads coated with either 100% EPC, 10:90 (molar ratio) mixture of DMPG and EPC or an 80:20 mixture of DMPG and DMPC. All melittin experiments were conducted at 25° C.
Previous suspension studies on disruption of lipid bilayers have been performed with small unilamellar vesicles where disruption of the lipid bilayer membranes was detected by monitoring the unquenching of a highly concentrated, encapsulated dye. In the present work disruption was monitored via release of fluorescein dye from porous beads, by measuring the increase in fluorescence intensity of the supernatant at 520 nm. Beads were first suspended in Tris buffer containing the disruptor. After selected time periods, beads were sedimented by centrifuging and a portion of the supernatant was taken for the measurement. The measured portion was added back to the bead sample to permit continuous monitoring. The scattering effect that was present in vesicle based studies was minimized by measuring only the supernatant after centrifugation of the beads.

In the case of TRITON X-100, the “fluorescence after disruption of the lipid bilayer, % of the original fluorescence value” ([1]; 0.25% (w/v) TRITON X-100, 10 μM AQS, Example 2) is reported as ~10%, the “fluorescence after disruption, % of the fluorescence of DMPG-coated MS-PPE in the absence of quencher” value ([1]; 0.25% (w/v) TRITON X-100, 10 μM AQS, Example 3) is reported as ~18% and the “fluorescence intensity after addition, % of original value (real-time kinetics)” value ([1]; 10^6 DMPG-coated MS-PPE in 800 μL PBS, after 10 μM AQS) is reported as ~10%. For the same substance, the “increase in fluorescence intensity of the supernatant” value ([2]; 10% TRITON X-100, first 30 min, 25° C.) was “more than 70 fold” and the “increase in fluorescence intensity (total disruption of bilayers)” value ([2]; TRITON X-100 added after 150 min exposure to α-toxin) was 50 fold.
